Key:
[1] = system: CB-1 receptor (CHO cells); assay: Assay of cAMP accumulation in CHO cells expressing the cannabinoid receptor (forskolin, anandamide); format: cell-based
Procedure: Assay of CAMP accumulation.
CHO cells were preincubated in growth media with forskolin (10^-6 M) with or without anandamide for 4 hours Cyclic AMP accumulation was measured over 5 minutes after exchanging the growth media with serum free media containing forskolin (10^-6 M) and anandamide, with or without antagonists as indicated. Data are the mean ±S.E. of three experiments performed in triplicate. […] . […] ;

[2] = system: anandamide-induced sedation in C57BL/6J mice; assay: Open Field Assay of mouse behavior (Digiscan Automated Open Field), sedation caused by anandamide; format: in vivo; settings: for Effect on animal's movements (in words): Horizontal Exploratory Activity and Total Distance Exploratory Behavior
Procedure: In Vivo Effects of Anandamide Antagonists
The Open Field Assay evaluates the motion (both horizonal and vertical) of a mouse when placed in a large, open area. […] The mouse is placed in the center of a large area of a device which measues the number of vertical and horizontal movements of the mouse (Digiscan Automated Open Field). Each test session is of 5 minute duration. At the end of this time period, the mouse is removed from the scanner and the recorded data are automatically analyzed and satisically evaluated. Further details are given in Crawley, J., J. Neurosci., 12(9), p. 3380-3391 (1992).

[3] = system: N-type calcium channel via the CB-1 receptor (N18 cells); assay: Effect on N-type calcium channel currents, whole-cell voltage clamp in N18 neuroblastoma cells; format: cell-based
Procedure: Effect on N-type Calcium Channel Currents
Specifically, the compounds of formula I open the N-type calcium channels, which are closed by either anandamide or the cannabinoids (see: Mackie, K. and Hille, B., Proc. Natl. Acad. Sci., 89, p.3825-3829 (1992)).
N18 (neuroblastoma cell line) cells (passages 32-41) were grown on glass coverslip fragments in DMEM plus 5% (fetal bovine serum)(FBS, using standard cell culture techniques. Six to 14 days before recording, cells were "differentiated" by changing the medium to DMEM plus 0.5% FBS plus 2% dimethylsulfoxide. In PTX (Pertussis Toxin) experiments, differentiated cells were grown for an additional 16-20 hours in medium containing 500 ng/ml PTX. Control cells were treated identically, except that […].
Currents were recorded using the whole-cell voltage-clamp technique. Pipettes were pulled from hematocrit glass (VWR) and fire polished. The pipette solution contained (in mM) 100 CsCl, 10 EGTA, 5 MgCl2, 40 HEPES, 3 Na2 ATP, and 0.2 GTP, pH 7.30 with CsOH. For recording, a coverslip containing cells was transferred to the recording chamber (200 μl) and constantly perfused at a rate of 1-2 ml/min with an external solution containing (in mM) 160 NaCl, 5 CaCl2, 4 KCl, 1 MgCl2, 10 HEPES, and 8 glucose, pH 7.35 with NaOH. Tetrodotoxin (200 nM) was added to block voltage-gated sodium currents, and bovine serum albumin (3 μM) was present in all recording solutions to decrease adsorption of cannabinoids. Subsequently the cannabinoid agonist WIN 55,212 and the compounds of this invention were added. ICa was measured near the end of a 25-msec depolarizing pulse to 0 mV and was defined as that component of the current sensitive to 100 μM CdCl2. Solution reservoirs were selected by means of a series of solenoid valves, and solution changes were accomplished in <1 min. In all experiments the cells were held under voltage clamp at a holding potential of -65 mV. Voltage protocols were generated and data were digitized, recorded, and analyzed using BASIC-FASTLAB (Indec Systems, Capitola, Calif.). Currents were sampled at 4 kHz and junction potentials are uncorrected. To control for potential response variations with passage number and duration of differentiation, experimental and control measurements were alternated whenever possible. Where appropriate, data are expressed as mean ±standard error.

human CB-1 receptor = human CB-1 receptor (Homo sapiens, UniProt P21554); assay: Radioligand binding assay, competition with [^3 H]CP55,940 on Ltk cell membranes
[4] = system: N-type calcium channel via the CB-1 receptor (N18 cells); settings: Felder, et al.; cited from earlier work
[5] = Vehicle + anandamide, 2 mg/kg i.p., 5 min session

Chain of human CB-1 receptor (P21554 whole entry): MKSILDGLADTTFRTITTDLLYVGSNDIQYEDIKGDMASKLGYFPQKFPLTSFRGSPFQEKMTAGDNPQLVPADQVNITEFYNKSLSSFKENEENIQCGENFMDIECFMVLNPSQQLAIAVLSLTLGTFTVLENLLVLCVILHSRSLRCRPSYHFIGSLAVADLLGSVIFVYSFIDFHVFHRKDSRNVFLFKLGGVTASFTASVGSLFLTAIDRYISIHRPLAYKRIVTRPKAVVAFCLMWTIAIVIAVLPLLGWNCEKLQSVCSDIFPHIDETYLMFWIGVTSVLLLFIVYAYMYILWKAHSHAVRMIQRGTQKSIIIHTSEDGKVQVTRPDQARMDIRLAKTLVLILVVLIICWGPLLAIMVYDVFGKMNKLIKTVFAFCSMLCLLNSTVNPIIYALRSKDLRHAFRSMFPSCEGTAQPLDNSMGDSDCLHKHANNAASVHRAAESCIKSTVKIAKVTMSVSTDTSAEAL

C=C[C@@]1(C)CC(=O)[C@]2(O)[C@@]3(C)[C@@H](O)CCC(C)(C)[C@@H]3[C@H](O)[C@H](OC(C)=O)[C@@]2(C)O1 [Forskolin, reference compound]
effect on cAMP (in words) [1]: raises the level of cAMP above the basal level
cAMP accumulation ([1]; forskolin (FSK) alone, 10^-6 M): 30 pM/mL

COc1ccc(-c2oc3cc(OC)ccc3c2C(=O)c2ccc(C#N)cc2)cc1 [Example 6, [6-Methoxy-2-(4-methoxyphenyl)-benzo[b]furan-3-yl]-3-(4-cyanophenyl)-methanone]
Total Distance Exploratory Behavior, Digiscan Total Distance/5 min ([2]; Cmpd.6 20 mg/kg i.p., 28 min before anandamide 2 mg/kg i.p., *p < 0.01): 300
Horizontal Exploratory Behavior, Digiscan Horizontal Activity/5 min. ([2]; Cmpd.6 20 mg/kg i.p., 28 min before anandamide 2 mg/kg i.p., *p < .05): 900
Effect on animal's movements (in words) [2]: reversed
Effect on N-type calcium channel (in words) [3]: opening the N-type calcium channel via the CB-1 receptor
Cell current ([3]; Cmpd.6 (1 μM) alone): -150 pA
Cell current ([3]; Oxo-M + Cmpd.6 (specificity control)): -60 pA
Cell current ([3]; WIN + Cmpd.6): -150 pA

COc1ccc(-c2oc3cc(OC)ccc3c2C(=O)c2ccc(O)cc2)cc1 [Example 4, [6-Methoxy-2-(4-methoxyphenyl)-benzo[b]furan-3-yl]-3-(4-hydroxyphenyl)-methanone]
Ki (human CB-1 receptor): 4120 nM

CCCOc1ccc(C(=O)c2c(-c3ccc(OC)cc3)sc3cc(OC)ccc23)cc1 [Example 12, [6-Methoxy-2-(4-methoxyphenyl)benzo[b]thien-3-yl] [4-n-propyloxyphenyl]methanone]
Ki (human CB-1 receptor): 1540 nM

COc1ccc(Cc2c(-c3ccc(OC)cc3)oc3cc(OC)ccc23)cc1 [Example 16, [6-Methoxy-2-(4-methoxyphenyl)benzo[b]furan-3-yl][4-methoxyphenyl]methane]
Ki (human CB-1 receptor): 5300 nM

COc1ccc2c(C(=O)c3ccc(C#N)cc3)c(-c3ccc(C)cc3)oc2c1 [Example 3, [6-Methoxy-2-(4-methylphenyl)benzo[b]furan-3-yl][4-cyanophenyl]methanone]
Ki (human CB-1 receptor): 134 nM

Cc1c(C(=O)c2cccc3ccccc23)c2cccc3c2n1[C@H](CN1CCOCC1)CO3 [WIN 55,212, reference compound]
Effect on N-type calcium channel (in words) [3]: inhibits the N-type calcium channel via the CB-1 receptor
Cell current ([3]; WIN 55,212 (100 nM) alone, Table 3): -60 pA
Current after WIN 55,212 ([3]; agonist inhibits N-type calcium channel): -65 pA
Action compared with anandamide (in words) [4]: acts the same as anandamide

COc1ccc(-c2oc3cc(OC)ccc3c2C(O)c2ccc(OC)cc2)cc1 (stereo not shown) [Example 15, [6-Methoxy-2-(4-methoxyphenyl)benzo[b]furan-3-yl] [4-methoxyphenyl]methanol]
Ki (human CB-1 receptor): 25800 nM

COc1ccc(-c2sc3cc(OC)ccc3c2C(=O)c2ccc(O)cc2)cc1 [Example 8, [6-methoxy-2-(4-methoxyphenyl)benzo[b]thien-3-yl][4-hydroxyphenyl]methanone]
Ki (human CB-1 receptor): 950 nM

CCCCC/C=C\C/C=C\C/C=C\C/C=C\CCCC(=O)NCCO [Anandamide, N-ethanolamine amide of arachidonic acid, reference compound]
Effect on animal's movements (in words) [2]: severe depression and sedation of the animal's movements
Horizontal Exploratory Behavior, Digiscan Horizontal Activity/5 min. [2, 5]: 200
Total Distance Exploratory Behavior, Digiscan Total Distance/5 min [2, 5]: 50
effect on cAMP (in words) [1]: inhibits the increase of cAMP induced by the forskolin
cAMP accumulation ([1]; FSK + ANM, no antagonist): 5 pM/mL
cAMP accumulation ([1]; anandamide (1 μM) alone): < 5 pM/mL

CCCCOc1ccc(C(=O)c2c(-c3ccc(OC)cc3)sc3cc(OC)ccc23)cc1 [Example 13, [6-Methoxy-2-(4-methoxyphenyl)benzo[b]thien-3-yl][4-n-butyloxyphenyl]methanone]
Ki (human CB-1 receptor): 430 nM

COc1ccc(C(=O)c2c(-c3ccc(OC)cc3)sc3cc(OC)ccc23)cc1 [Example 7, [6-methoxy-2-(4-methoxyphenyl)benzo[b]thien-3-yl][4-methoxyphenyl]methanone]
Ki (human CB-1 receptor): 3600 nM

COc1ccc(-c2oc3cc(OC)ccc3c2C(=O)c2ccc(OS(=O)(=O)C(F)(F)F)cc2)cc1 [Example 5, [6-Methoxy-2-(4-methoxyphenyl)-benzo[b]furan-3-yl]-3-(phenyl-4-triflate)-methanone]
Ki (human CB-1 receptor): 490 nM
